Reference: US10988456B2, “O-aminoheteroaryl alkynyl-containing compound, preparation method therefor, and use thereof” (SHANGHAI INSTITUTE OF MATERIA MEDICA, CHINESE ACADEMY OF …, priority 2017, dated 2021)

Tests used:
FGFR1 = FGFR1 (Homo sapiens, UniProt P11362); experiment: Inhibition of receptor tyrosine kinase activity at molecular level (ELISA, Poly(Glu,Tyr)4:1 substrate phosphorylation); type: biochemical; settings: 10 nM compound; average of two independent experiments
KDR = KDR (Homo sapiens, UniProt P35968); experiment: as above; type: biochemical; settings: 10 nM compound; average of two independent experiments
KDR, sequence (P35968 20-1356): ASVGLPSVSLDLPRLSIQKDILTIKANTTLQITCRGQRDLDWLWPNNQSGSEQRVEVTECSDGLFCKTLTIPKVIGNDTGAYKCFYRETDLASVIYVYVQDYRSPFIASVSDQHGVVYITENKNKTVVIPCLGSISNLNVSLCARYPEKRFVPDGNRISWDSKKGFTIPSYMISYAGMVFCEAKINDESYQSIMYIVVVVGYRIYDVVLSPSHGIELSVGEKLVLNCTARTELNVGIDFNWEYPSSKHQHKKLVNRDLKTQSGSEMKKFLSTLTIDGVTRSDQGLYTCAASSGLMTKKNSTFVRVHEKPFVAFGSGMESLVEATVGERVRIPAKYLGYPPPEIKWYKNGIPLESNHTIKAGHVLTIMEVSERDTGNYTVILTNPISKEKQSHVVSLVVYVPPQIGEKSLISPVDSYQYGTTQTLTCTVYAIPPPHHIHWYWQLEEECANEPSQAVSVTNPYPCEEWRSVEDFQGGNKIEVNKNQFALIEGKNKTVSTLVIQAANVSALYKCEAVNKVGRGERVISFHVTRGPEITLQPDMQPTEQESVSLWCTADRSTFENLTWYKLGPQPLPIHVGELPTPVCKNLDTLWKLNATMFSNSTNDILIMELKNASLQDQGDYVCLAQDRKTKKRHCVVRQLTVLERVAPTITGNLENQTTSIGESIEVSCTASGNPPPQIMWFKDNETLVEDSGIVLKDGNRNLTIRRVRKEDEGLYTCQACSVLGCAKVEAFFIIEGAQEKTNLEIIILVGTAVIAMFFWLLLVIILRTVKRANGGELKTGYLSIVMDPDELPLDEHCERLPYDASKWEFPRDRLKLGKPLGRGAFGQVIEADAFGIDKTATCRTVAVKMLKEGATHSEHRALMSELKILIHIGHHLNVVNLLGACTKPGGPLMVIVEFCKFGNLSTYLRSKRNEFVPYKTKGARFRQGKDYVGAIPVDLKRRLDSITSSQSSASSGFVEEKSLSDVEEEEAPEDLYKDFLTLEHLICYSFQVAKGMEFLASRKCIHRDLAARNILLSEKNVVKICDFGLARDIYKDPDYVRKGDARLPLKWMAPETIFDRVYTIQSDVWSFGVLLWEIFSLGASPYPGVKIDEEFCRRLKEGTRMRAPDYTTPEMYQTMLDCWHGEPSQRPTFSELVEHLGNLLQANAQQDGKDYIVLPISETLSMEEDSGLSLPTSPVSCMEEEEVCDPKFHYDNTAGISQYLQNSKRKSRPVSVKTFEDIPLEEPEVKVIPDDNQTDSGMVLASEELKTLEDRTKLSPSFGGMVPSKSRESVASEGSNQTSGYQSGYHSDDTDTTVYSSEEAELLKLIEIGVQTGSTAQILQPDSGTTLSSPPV

RET = RET (Homo sapiens, UniProt P07949); experiment: as above; type: biochemical
RET, sequence (P07949 29-1114): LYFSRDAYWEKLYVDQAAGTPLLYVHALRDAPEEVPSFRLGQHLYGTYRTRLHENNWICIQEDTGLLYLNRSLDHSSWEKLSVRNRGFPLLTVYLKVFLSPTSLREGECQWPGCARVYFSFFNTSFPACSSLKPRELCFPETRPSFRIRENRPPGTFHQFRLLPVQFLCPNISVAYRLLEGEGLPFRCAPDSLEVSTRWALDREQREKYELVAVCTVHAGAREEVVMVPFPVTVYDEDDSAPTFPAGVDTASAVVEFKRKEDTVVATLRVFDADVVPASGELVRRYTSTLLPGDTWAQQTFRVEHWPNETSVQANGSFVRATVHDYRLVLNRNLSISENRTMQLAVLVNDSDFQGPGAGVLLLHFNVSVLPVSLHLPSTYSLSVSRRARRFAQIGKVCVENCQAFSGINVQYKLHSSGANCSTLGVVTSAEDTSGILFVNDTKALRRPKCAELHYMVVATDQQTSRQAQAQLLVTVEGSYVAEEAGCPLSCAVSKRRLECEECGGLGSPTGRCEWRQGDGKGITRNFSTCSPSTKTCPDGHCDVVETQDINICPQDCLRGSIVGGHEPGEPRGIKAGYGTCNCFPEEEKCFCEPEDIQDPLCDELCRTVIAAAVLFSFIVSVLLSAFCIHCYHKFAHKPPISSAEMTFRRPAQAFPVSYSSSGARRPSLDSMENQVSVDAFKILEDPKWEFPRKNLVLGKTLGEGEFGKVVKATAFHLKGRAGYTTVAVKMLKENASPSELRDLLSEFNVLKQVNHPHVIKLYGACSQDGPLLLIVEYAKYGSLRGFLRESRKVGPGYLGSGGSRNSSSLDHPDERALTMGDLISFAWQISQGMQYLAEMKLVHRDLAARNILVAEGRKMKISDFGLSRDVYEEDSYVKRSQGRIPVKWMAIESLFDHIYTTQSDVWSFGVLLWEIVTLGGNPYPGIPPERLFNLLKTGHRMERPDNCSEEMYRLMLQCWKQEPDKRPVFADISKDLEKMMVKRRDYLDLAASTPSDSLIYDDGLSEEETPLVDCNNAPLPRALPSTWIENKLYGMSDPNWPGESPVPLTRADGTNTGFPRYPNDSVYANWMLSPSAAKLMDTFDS
Outline: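 Poly(Glu,Tyr)4:1-coated plates (20 μg/mL) were incubated with recombinant kinase, compound and 5 μM ATP (final) in HEPES pH 7.4 buffer with MgCl2/MnCl2/Na3VO4/DTT for 1 h at 37 °C. Phosphotyrosine was detected with PY99 and HRP anti-mouse IgG plus OPD at 490 nm. IC50 came from four-parameter regression.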

Ret (V804M) = target: T1, Ret (V804M) (Homo sapiens, UniProt P07949, V804M); experiment: Inhibition of RET-related mutant enzyme activity (ELISA); type: biochemical; settings: measured twice, Mean ± SD
T1 construct: purchased
T1 sequence (P07949 29-1114 V804M): as the sequence (P07949 29-1114) above, with V776M counted along it
Experimental: Enzyme reaction substrate Poly(Glu, Tyr)4:1 was diluted with potassium-free PBS (10 mM sodium phosphate buffer, 150 mM NaCl, pH 7.2-7.4) to 20 μg/mL. The enzyme label plate was coated with 125 μL/well. The reaction was conducted under 37° C. for 12-16 hours. After the liquid was removed from the wells, the plate was washed three times with 200 μL/well of T-PBS (PBS containing 0.1% Tween-20), each for 5 minutes. The enzyme plate was dried in 37° C. dryer for 1-2 hours.
50 μL ATP solution diluted with buffer (50 mM HEPES pH 7.4, 50 mM MgCl2, 0.5 mM MnCl2, 0.2 mM Na3VO4, 1 mM DTT) to a final concentration of 5 μM was added into each well. The compound was diluted with DMSO to a suitable concentration (1 μL/well) or the well contained the corresponding concentration of DMSO (negative control well) Then various kinase recombinant proteins diluted with 49 μL of reaction buffer was added to initiate the reaction. Each experiment required duplicate enzyme-free control well. The reaction was carried out for 1 hour on a 37° C. Shaker (100 rpm). […] The reaction was quenched with 2M H2SO4 (50 μL/well), and read at 490 nm using a tunable microplate reader SPECTRA MAX 190.
The inhibition ratio of the sample was determined by the following formula: […]
The IC50 values were obtained via four-parameter regression analysis using the software supplied with the microplate reader. […]

[1] = system: human lung cancer NCI-H1581 xenografts; experiment: Growth of subcutaneous xenografts of human lung cancer NCI-H1581 in nude mice; type: in vivo; settings: for Relative tumor volume RTV (mean ± SD): NCI-H1581, 50 mg/kg orally once a day; for Weight (g, mean ± SD): NCI-H1581 tumor-bearing mice, 50 mg/kg orally once a day
Experimental: The diameter of the subcutaneously implanted tumor in nude mice was measured by a vernier caliper. […] In the compound HuFGFR267 50 mg/kg group, the compound was formulated with 0.5% methylcellulose (MC) to the required concentration before use. The formulation of compound was prepared once a week, and orally administered once a day for 14 days. The positive control drug AZD4547 was diluted to the required concentration with water for injection containing 1% Tween 80 before use. The formulation of AZD4547 was prepared once a week, and orally administered once a day for 14 days. In the solvent control group, an equal amount of water for injection was administrated.

[2] = Pharmacokinetic experiment in rat (IV and PO, plasma LC-MS/MS); settings: SD rats
Experimental: Ponatinib (AP24534) was administered intravenously (IV) and orally (PO) to SD rats. Blood samples were taken at different time points. LC-MS/MS was used to determine the concentration of compound in the plasma of rats after administration of the test compound, and the relevant pharmacokinetic parameters were calculated to examine oral bioavailability and pharmacokinetic properties of the compound in rats.
Compound HuFGFR267 was administered intravenously and orally to SD rats. Blood samples were taken at different time points. LC-MS/MS was used to determine the concentration of compound in the plasma of rats after administration of the test compound, and the relevant pharmacokinetic parameters were calculated to examine oral bioavailability and pharmacokinetic properties of the compound in rats.

FGFR1, sequence (P11362 22-822): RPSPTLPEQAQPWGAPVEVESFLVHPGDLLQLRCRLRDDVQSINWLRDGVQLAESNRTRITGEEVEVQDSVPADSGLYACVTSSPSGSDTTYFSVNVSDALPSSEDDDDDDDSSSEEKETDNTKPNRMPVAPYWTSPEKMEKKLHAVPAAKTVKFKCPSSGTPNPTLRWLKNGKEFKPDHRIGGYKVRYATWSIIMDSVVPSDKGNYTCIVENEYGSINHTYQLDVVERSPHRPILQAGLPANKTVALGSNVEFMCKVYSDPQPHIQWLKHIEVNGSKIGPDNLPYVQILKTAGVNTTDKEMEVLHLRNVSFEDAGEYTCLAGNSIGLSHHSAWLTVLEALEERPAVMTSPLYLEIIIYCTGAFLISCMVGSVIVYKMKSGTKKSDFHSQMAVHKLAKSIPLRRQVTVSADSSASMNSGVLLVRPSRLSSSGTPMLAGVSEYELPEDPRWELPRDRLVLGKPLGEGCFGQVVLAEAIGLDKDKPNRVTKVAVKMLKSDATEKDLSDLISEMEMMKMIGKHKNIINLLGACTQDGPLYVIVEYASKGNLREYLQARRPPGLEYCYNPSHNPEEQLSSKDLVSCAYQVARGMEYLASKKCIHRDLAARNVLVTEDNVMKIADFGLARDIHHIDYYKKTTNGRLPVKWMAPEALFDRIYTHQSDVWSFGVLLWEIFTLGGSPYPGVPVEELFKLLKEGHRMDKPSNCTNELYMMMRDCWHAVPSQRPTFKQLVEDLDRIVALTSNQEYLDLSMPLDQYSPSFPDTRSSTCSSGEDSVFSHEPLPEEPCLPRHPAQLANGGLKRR

CN1CCN(Cc2ccc(NC(=O)c3ccc(Cl)c(C#Cc4cccnc4N)c3)cc2C(F)(F)F)CC1 [Example 1, 3-(2-aminopyridine-3-ethynyl)-4-chloro-N-(4-((4-methylpiperazin-1-yl)methylene)-3-(trifluoromethyl)phenyl)benzamide]
10 nM inhibition ratio FGFR1 (FGFR1): 77.7
10 nM inhibition ratio KDR (KDR): 45.1
10 nM inhibition ratio RET (RET; 10 nM compound, average of two independent experiments): 87.6
IC50 (RET; measured twice, Mean ± SD): 1.4 ± 0.6 nM
IC50 (Ret (V804M)): 8.4 ± 1.7 nM
body weight of tumor-bearing mice (in words) ([1]; NCI-H1581, 50 mg/kg orally once a day for 14 days): no significant change
relative tumor proliferation rate T/C ([1]; NCI-H1581, 50 mg/kg orally once a day for 14 days, 14th day): 3.77%
Relative tumor volume RTV (mean ± SD) ([1]; d0): 1.00 ± 0.00
Relative tumor volume RTV (mean ± SD) ([1]; d3): 1.28 ± 0.40
Relative tumor volume RTV (mean ± SD) ([1]; d7): 1.33 ± 0.74
Relative tumor volume RTV (mean ± SD) ([1]; d10): 2.02 ± 1.10
Relative tumor volume RTV (mean ± SD) ([1]; d14): 2.16 ± 1.41
animal deaths during the experiment ([1]; NCI-H1581, each group (HuFGFR267 50 mg/kg, AZD4547 12.5 mg/kg)): no mice died
Weight (g, mean ± SD) ([1]; d0): 18.1 ± 1.2 g
Weight (g, mean ± SD) ([1]; d3): 19.2 ± 1.0 g
Weight (g, mean ± SD) ([1]; d7): 19.7 ± 1.0 g
Weight (g, mean ± SD) ([1]; d10): 20.2 ± 1.2 g
Weight (g, mean ± SD) ([1]; d14): 20.0 ± 1.3 g
AUC0-t ([2]; IV (2 mg/kg)): 2720 ng·h/mL
CLplasma ([2]; IV (2 mg/kg)): 11.9 mL/min/kg
T1/2 ([2]; IV (2 mg/kg)): 6.00 h
Vdss ([2]; IV (2 mg/kg)): 4.88 L/kg
AUC0-t ([2]; PO (10 mg/kg)): 4961 ng·h/mL
Cmax ([2]; PO (10 mg/kg)): 346 ng/mL
T1/2 ([2]; PO (10 mg/kg)): 10.5 h
Tmax ([2]; PO (10 mg/kg)): 5.33 h
F ([2]; PO (10 mg/kg) vs IV (2 mg/kg)): 36.5%
